{
  "source": "patent EP0442962B1",
  "about": "“LIPOSOMAL RADIOLOGIC CONTRAST AGENTS” (UNGER, Evan C, priority 1988, dated 1990)",
  "key": {"[1]": {"test": "In vitro relaxivity from phantom imaging at 1.5 Tesla, Example 4", "assay_type": "physicochemical", "settings": "phantoms in PBS, T1", "description": "Phantoms were prepared by diluting the vesicle preparation with Dulbecco's phosphate buffered saline (PBS) (Gibco), so as to obtain several samples for each vesicle preparation with an effective concentration of Gd-DTPA in the range 0.2-2 mmoles. Approximately 10 ml of each dilution was placed in 20 ml plastic syringes (Becton Dickinson), which were sealed with parafilm to prevent leakage and placed in a custom-built acrylic phantom holder which positioned the syringes with their long-axes horizontal within the bore of the magnet.\nPhantoms were imaged using a Siemens 1.5 Tesla Magnetom whole body scanner (Iselin, N.J.) using body coil. For T1 calculations, images were acquired using spin-echo sequences with a fixed TE of 17 msec and TR values of 100, 300, 450, 600, 900, 1200, 1800, 2500 and 3500 msec. Other parameters were 4 acquisitions, 256 x 256 matrix, 30 cm field of view and 10 mm slices."}, "Male Wistar rats": {"test_system": "Male Wistar rats", "test": "In vivo MR contrast enhancement of microemulsified liposomes at 0.5 Tesla, Example 9", "settings": "control, dose of 0.1 mmoles/kg; Figure 5", "description": "All in vivo imaging was performed on a Toshiba MR-50A 0.5 Tesla whole body scanner. Scan parameters were TR = 400 msec TE = 15 msec, 5 mm slice, 1 mm interslice gap, 15 cm field of view with 4 acquisitions using a receive-only surface coil.\nMale Wistar rats were scanned in the supine position, and signal intensities of liver, kidney and paraspinal muscle as well as urine, were measured pre and post contrast, with post contrast intervals comprising 15 minutes, 1 hour, 4 hours, 24 hours and 48 hours.\nInjections of liposomes prepared as described above were made at concentrations of 0.1, 0.05 and 0.025 mM/kg, based on the weight of the rats, and were carried out by tail vein injection using a 26 gauge butterfly needle. The liposomes were injected over a period of approximately two minutes, and were first diluted with an equal volume of normal saline immediately prior to injection."}, "Male buffalo rats": {"test_system": "Male buffalo rats", "test": "In vivo MR contrast enhancement (signal intensity pre and post contrast), Example 3", "settings": "for Liver + Muscle (ratio of liver enhancement to muscle enhancement) / Liver enhancement / Muscle enhancement (paraspinal muscle): scans 30 min after I.V. injection", "description": "All in vivo imaging was performed on a Siemens 1.5 Tesla magnet (Iselin, N.J.). Spin echo technique was utilized for both T1- and T2-weighted imaging. T1-weighted sequences utilized parameters TR/TE: 400 msec/16 msec, 4 acquisitions, 256 x 256 matrix 16 cm field view for 2 mm thick slices. For T1 calculations, images were acquired using a fixed TE of 28 msec with TR varying from 300, 500, 1500 and 3500 msec. For T2 calculations a fixed TR of 3500 msec was used with TE values of 28, 45, 70, 90 and 150 msec. T1 and T2 calculations were preformed using the software on the Magnetom System (Iselin, N.J.) by selecting a region of interest on the CRT monitor.\nMale buffalo rats, weighing approximately 450 grams, were scanned using a 7.5 cm circular surface coil. The animals were scanned in the supine position, and signal intensities of liver, paraspinal muscle, kidney, renal pelvis, bladder and vascular structures were measured pre and post contrast. Rats were imaged pre and post contrast injection of either 0.4 µ Gd-DTPA liposomes (8 rats) or free Gd-DTPA (2 rats).\nInjections of the 0.4 µ liposomes prepared in Example 1 were performed by tail vein injection using a 26 gauge butterfly needle. Gd-DTPA liposomes were injected over a period of approximately two minutes; liposomes were diluted with an equal volume of normal saline immediately prior to injection."}, "Hepatic Metastases": {"test_system": "Hepatic Metastases", "test": "Blind study detection of hepatic metastases on MR images pre and post contrast by 5 radiologists, Example 7", "assay_type": "in vivo, rat", "settings": "for Accuracy Post: includes adjustment for false positives; for #Post (number of metastases detected on Post contrast scans): one rat per dose, 5 radiologists; for Sensitivity Post: percentage of lesions detected on Post contrast scans", "source_text": "The cell line employed, C5, is a clonal derivative of a rat liver epithelial cell line initially derived from the livers of newborn Fisher rats and subsequently transformed in vitro by transfection with a plasmid containing the T24ras gene driven by the mouse metallothionein promotor. See, Li et al., P.N.A.S., Vol. 35, pp. 344 (1988); Reynolds et al., Oncogene, Vol. 323, pp. 323-330 (1987).\nThe tumors used in this study were generated by injecting 3 x 10⁵ cells into the superficial lobe of rat livers. Three separate injections of 10⁵ cells were made within an approximate area of 0.5 cm² under direct visualization. The tumors were allowed to grow for 14 to 17 days before imaging followed by sacrifice.\nMR imaging was performed on a whole body 1.5 T Siemens Magnetom (Erlangen, West Germany) using a 15 cm Helmholtz receive only coil. Spin echo technique was used with TR/TE of 400 msec/17 msec, 2 mm slices with 4 acquisitions. Images were obtained pre and post contrast in both axial and coronal planes with post contrast images obtained from 5 to 60 minutes post contrast.\nRats were lightly sedated with ether and then fully sedated with I.P. Ketamine/Rompun 0.10 ml/100 g body weight. Contrast injections were performed by tail vein over two minutes with volume approximately 0.5 ml. Doses were as follows: free Gd-DTPA 0.5 and 0.2 mM/kg, 400 nm Gd-DTPA liposomes 0.5, 0.2 and 0.1 mM/Kg and 70 nm Gd-DTPA liposomes 0.5 and 0.2 mM/Kg with one rat injected with each dose.\nPre and post contrast images were separated and, in a blind study, five radiologists experienced in interpreting MR and oncologic imaging were given the MR images to interpret. The MR scans were presented to the radiologists randomly without knowledge of path findings or contrast agent used. The radiologists were instructed to count the number of metastases, plot lesion locations and measure lesion size. The number and sizes of lesions detected were then correlated with the histologic sections and the true number of metastases detected was determined for pre and post contrast scans. The Mann-Whitney test was used to test for statistical significance of results for lesion detection pre and post contrast.\nImmediately after imaging, the rats were sacrificed by ether overdose and the livers removed and fixed in 10% formalin. The gross liver specimens were photographed and sectioned in the coronal plant at 2 mm intervals. The number of lesions were counted and size of lesions were measured to correlate with findings on MR images. Microscopic sections were prepared using hematoxylin and eosin stain and studied with light microscopy."}},
  "data": [
    {"substance": "gadolinium diethylenetriamine pentaacetic acid [Free Gd-DTPA]", "values": [
      {"measurement": "Relaxivity", "setting": "[1]", "value": 2.79, "unit": "sec^-1 x mM^-1"},
      {"measurement": "enhancement on scans (tissue to muscle ratio)", "setting": "Male Wistar rats", "value": "no significant enhancement of the liver, kidney and urine"},
      {"measurement": "Liver + Muscle (ratio of liver enhancement to muscle enhancement)", "setting": "Male buffalo rats; Dose 0.109 mM/Kg", "value": -19.3, "unit": "%"},
      {"measurement": "Liver enhancement", "setting": "Male buffalo rats; Dose 0.109 mM/Kg", "value": 0.0, "unit": "%"},
      {"measurement": "Muscle enhancement (paraspinal muscle)", "setting": "Male buffalo rats; Dose 0.109 mM/Kg", "value": 22.4, "unit": "%"},
      {"measurement": "Liver + Muscle (ratio of liver enhancement to muscle enhancement)", "setting": "Male buffalo rats; Dose 0.218 mM/Kg", "value": 8.2, "unit": "%"},
      {"measurement": "Liver enhancement", "setting": "Male buffalo rats; Dose 0.218 mM/Kg", "value": 11.6, "unit": "%"},
      {"measurement": "Muscle enhancement (paraspinal muscle)", "setting": "Male buffalo rats; Dose 0.218 mM/Kg", "value": 3.1, "unit": "%"},
      {"measurement": "enhancement on scans after injection", "setting": "Male buffalo rats; two control animals, 0.1 and 0.2 millimoles/kg", "value": "enhancement of renal cortex, renal pelvis and urinary bladder, but no appreciable enhancement of liver or vascular structures"},
      {"measurement": "Accuracy Post", "setting": "Hepatic Metastases; Dose 0.2 mm/kg", "value": "0±0", "unit": "%"},
      {"measurement": "#Post (number of metastases detected on Post contrast scans)", "setting": "Hepatic Metastases; Dose 0.2 mm/kg", "value": "0±0", "unit": "isointense"},
      {"measurement": "Sensitivity Post", "setting": "Hepatic Metastases; Dose 0.2 mm/kg", "value": "0±0", "unit": "%"},
      {"measurement": "Accuracy Post", "setting": "Hepatic Metastases; Dose 0.5 mm/kg", "value": "40.0±23.5", "unit": "%"},
      {"measurement": "#Post (number of metastases detected on Post contrast scans)", "setting": "Hepatic Metastases; Dose 0.5 mm/kg", "value": "2.80±1.64"},
      {"measurement": "Sensitivity Post", "setting": "Hepatic Metastases; Dose 0.5 mm/kg", "value": "40.0±23.5", "unit": "%"},
      {"measurement": "lesion detection by the five radiologists", "setting": "Hepatic Metastases; post versus pre contrast, Mann-Whitney test", "value": "statistically significant reduction in lesion detection"}
    ]}
  ]
}
